Source: US20140194499A1, “Polyprenylated Benzoylphloroglucinols With Anticancer Activity” (Hong Kong Baptist University, priority 2013, published 2014)
Like-named read-outs stand apart in the source and are kept apart here.

Columns and labels:
Type in all cases: cell-based
[1] = test system: SMMC-7721 (human hepatocellular carcinoma); experiment: MTT cytotoxicity assay, SMMC-7721; details: SMMC-7721 cells
Description: (§1) In the present invention, garciesculentones A and C (compounds 1 and 2) are evaluated for their cytotoxicity against two human hepatoma carcinoma (SMMC-7721 and HepG2) and two human breast adenocarcinoma cell lines (MCF-7 and MDA-MB-231) using MTT assay, palcitaxel is used as positive control. […] In practice, an effective concentration of the tested compound to kill a target cancer cell in vitro is normally about double of the corresponding IC50 value. In addition, wound healing assay is conducted to test whether two novel compounds could affect cell motility.
(§2) Cytotoxicity Assay. Cytotoxic activities of all isolates were evaluated by MTT assay using SMMC-7721 (human hepatocellular carcinoma), HepG2 (human hepatocellular carcinoma), MCF-7 (human breast adenocarcinoma), and MDA-MB-231 (human breast adenocarcinoma). Paclitaxel was used as positive control. The detailed methodology for cytotoxicity assay has already been described in a previous report in Xia, Z.-X.; Zhang, D.-D.; Liang, S.; Lao, Y.-Z.; Zhang, H.; Tan, H.-S.; Chen, S.-L.; Wang, X.-H.; Xu, H.-X., Bioassay-Guided Isolation of Prenylated Xanthones and Polycyclic Acylphloroglucinols from the Leaves of Garcinia nujiangensis. Journal of Natural Products 2012.

[2] = test system: HepG2 (human hepatocellular carcinoma); experiment: MTT cytotoxicity assay, HepG2; details: HepG2 cells, read-out: Cytotoxicity IC50, HepG 2
Description: as §1, §2

[3] = test system: MCF-7 (human breast adenocarcinoma); experiment: MTT cytotoxicity assay, MCF-7
Description: as §1, §2

[4] = test system: MDA-MB-231 (human breast adenocarcinoma); experiment: MTT cytotoxicity assay, MDA-MB-231; details: MDA-MB-231 cells
Description: as §1, §2

[5] = test system: human esophageal carcinoma (ECA109) cells; experiment: Wound healing assay (cell migration); details: 10 and 20 μg/mL, 36 hours
Description: as §1
Wound healing assay. A wound healing assay was performed by using a modified procedure described previously in Jones, J. I.; Gockerman, A.; Busby, W. H., Jr.; Wright, G.; Clemmons, D. R., Insulin-like growth factor binding protein 1 stimulates cell migration and binds to the alpha 5 beta 1 integrin by means of its Arg-Gly-Asp sequence. Proc Nall Acad Sci USA 1993, 90 (22), 10553-7. Briefly, cells were plated in 24 wells plate at 70% confluence in conditioned medium. […] Cell migration into the wound surface was monitored by Olympus 1X71 microscopy and digitally photographed.

Row | Compound | IC50 [1] | IC50 [2] | IC50 ([3]; MCF-7 cells) | IC50 [4] | Cell migration into the wound area (antimigration effect) [5] | IC50 ([1]; Homo sapiens) | IC50 ([2]; Homo sapiens) | IC50 ([3]; Homo sapiens, MCF7, MCF-7 cells) | IC50 ([4]; Homo sapiens)
1 | Garciesculentone C [Compound 2] | 17.5 µM | 21.9 µM | 11.1 µM | 21.5 µM | do not migrate into and completely close the wound |  |  |  | 
2 | CC(=O)O[C@H]1C(=O)[C@@]2(C)[C@H]([C@H](OC(=O)c3ccccc3)[C@]3(O)C[C@H](OC(=O)[C@H](O)[C@@H](NC(=O)c4ccccc4)c4ccccc4)C(C)=C1C3(C)C)[C@]1(OC(C)=O)CO[C@@H]1C[C@@H]2O [Palcitaxel, Paclitaxel, reference compound] |  |  |  |  |  | 0.0091 µM | 0.0046 µM | 0.0015 µM | 0.0082 µM
3 | CC(C)=CC[C@H]1C[C@@]23C[C@H](CC=C(C)C)C(C)(C)[C@@](CC=C(C)C)(C(=O)C(OC(=O)c4ccc(O)c(O)c4)=C2OC1(C)C)C3=O (relative stereo) [Compound 1, Garciesculentone A] | 10.8 µM | 43.2 µM | 20.3 µM | 16.4 µM | do not migrate into and completely close the wound |  |  |  | 
